This note sets out measurements from a melting point compilation (Tetko et al.; mined from patent text by program, amines drawn as free bases though some values may be those of a salt).

Structures are written as SMILES.

As a reminder, the melting point is the temperature of the solid-liquid transition. `CC(C)(C)c1cc(N=C(O)c2cc(C(O)=Nc3cc(C(C)(C)C)c(O)c(C(C)(C)C)c3)c(C(=O)O)cc2C(=O)O)cc(C(C)(C)C)c1O` gave a melting point of 304 to 306 °C. On to `Clc1ccc2c(C3CCN(CCCOc4cccc5[nH]ccc45)CC3)c[nH]c2c1Cl`, for which the melting point fell in the range of 160 to 165 °C. Compound `O=C1OC(=O)c2cc(N3C(=O)CCCC3=O)ccc21` showed a melting point of 220 to 222 °C. For the compound `CCCCCCCCCCCCC1=C(O)C(=O)c2c(Cl)cccc2C1=O`, the melting point was in the range of 102 to 104 °C. Consider `ClCOc1ccc(-c2ccc(Cl)cc2)cc1`, for which the melting point was 68 to 70 °C.

`CC(=NO)c1ccc2c(c1O)OC(CO)CO2` (configuration not stated): the melting point was found to be 162 °C. Compound `O=C(O)c1cc2cc3c(cc2oc1=O)OCO3` displayed a melting point of 279 to 280 °C. Take `FC(F)(F)c1nc2cc(Cl)c(Cl)cc2[nH]1`: the melting point fell in the range of 225 to 230 °C. Compound `CCn1c(C)nc2cc([N+](=O)[O-])c(Sc3cccc4cnccc34)cc21` gave a melting point of 226 to 229 °C. `Cc1ccc2cccc(OCc3c(Cl)ccc(N)c3C#N)c2n1` came in with a melting point of 248 to 251 °C. `OCc1ccc2c(c1)ncn2-c1cccc(-c2cccnc2)c1`: the melting point lay within 183 to 185 °C. Then `COc1cc(O)ccc1-c1nc2cnccc2[nH]1`, with 255 °C; and `CC(C)OC1C=CC(=O)N1S(=O)(=O)c1ccccc1` (configuration not stated), with 148 to 149 °C.

The compound `CC(C)(C)OC(=O)Nc1ccc2nc(N3CCOCC3)nn2c1` came in with a melting point of 166 °C.

Compound `CCOC(=O)c1cnoc1-c1cccc(Cl)c1` registered a melting point of 75 to 77 °C. With `CCc1cccc2ccc(C=O)c(OCOC)c12`, the melting point fell in the range of 41.5 to 42.5 °C.

In turn, `CC(C)(C)OC(=O)NC[C@@H]1CNC(=O)O1` had a melting point of 116 °C. In the case of `CCc1c(Oc2c(Cl)cc(C(F)(F)F)cc2Cl)n[nH]c1C`, the melting point is 215 to 218 °C. Take `CC1CCC2(CC1)OCCN2C(=O)C(Cl)Cl` (configuration not stated): the melting point was in the range of 119 to 120 °C. The compound `COc1cc2ncnc(N3CCN(C(=O)Nc4ccc(S(C)(=O)=O)cc4)CC3)c2cc1OC` displayed a melting point of 266 to 269 °C. Turning to `O=C1Nc2cc(CN3CC=C(c4ccc(Cl)cc4)CC3)cnc2N2CCC[C@@H]12`, the melting point fell in the range of 234 to 235 °C. For `Cn1c(CO)nnc1NCCCOc1cccc(CN2CCCCC2)c1`, the melting point was in the range of 151 to 152 °C. In turn, `COc1cc(CO)c(OC)c(CCl)c1` returned a melting point of 48 to 50 °C.

`Cc1c(C(C)CC(=O)O)n(Cc2ccc(Cl)cc2)c2ccc(F)cc12` (configuration not stated) came in with a melting point of 143 °C. Regarding `CCC(=O)Oc1c(OC)cc(C)c(C(=O)c2c(OC)ccc(Cl)c2C)c1OC`, the melting point is 150 to 151 °C. For the compound `Oc1ccccc1Nc1cc[nH]n1`, the melting point lay within 163 to 164 °C.

As to `O=C(NC1CCN(Cc2ccccc2)CC1)c1n[nH]c2ccccc12`, the melting point is 198 to 200 °C.

`COc1cc(COc2nn(-c3ccccc3)cc2C(=O)O)ccc1OCc1nc(-c2ccccc2)oc1C` came in with a melting point of 209 to 210 °C. `NC(=O)c1cn2c(nc1=O)CCCCC2` displayed a melting point of 219 °C.

Turning to `CC(C)c1c(CO)c(-c2ccc(F)cc2)nc2ccccc12`, the melting point is 208 to 210 °C. For the compound `CN1CCN(C2=Nc3ccccc3N(C)c3sc4ccccc4c32)CC1`, the melting point is 88 to 90 °C. The compound `Cc1ccc(C=C2CCc3c2oc2ccc(C(=O)O)cc2c3=O)c(C)c1` registered a melting point of 329 to 331 °C. Then `CCCCCCCCCCCCCCCCCCCCCCCCCCCCOC(=O)c1cccnc1`, with 65 to 70 °C; and `CCCCC(CC)C(=O)C=P(c1ccccc1)(c1ccccc1)c1ccccc1` (configuration not stated), with 106 to 108 °C; and `O=C1NC(=O)C(c2ccc(NCc3ccc(Cl)c(Cl)c3)cc2)S1` (configuration not stated), with 132 to 133 °C. `C=C(CC(C)C)C(=O)O`: the melting point was in the range of 101 to 105 °C.

In turn, `CCC1(CO)COC(C(C)(C)Oc2ccc(Cl)cc2)=N1` (configuration not stated) came in with a melting point of 94 to 95 °C. Compound `CCCNCCc1ccc(NS(=O)(=O)c2ccc(Cl)cc2)cc1` came in with a melting point of 137 to 140 °C. As to `Cc1ccc2c(c1)OC(C(=O)O)Oc1ccccc1C2` (configuration not stated), the melting point was 149 to 152 °C. Then `Cc1cc(OCCN2CCOCC2)nn1-c1ccc2c(O)cccc2c1`, with below 70 °C; and `N#Cc1cc(-c2ccnc(Nc3cccc(Cl)c3)n2)ccn1`, with 221 to 222 °C; and `NC(=O)CCCC1(c2ccccc2)CC(O)=C(SCc2ccccc2)C(=O)O1` (configuration not stated), with 47.5 to 53 °C. With `CC(=O)Nc1ccc(NC2CCN3CCc4ccccc4C3C2)cc1` (configuration not stated), the melting point was 210 to 213 °C. Then `CS(=O)c1cc(CCC(=O)O)cc(-c2nc(=O)c3ccccc3s2)n1` (configuration not stated), with 266 °C. In turn, `COc1ccc(-c2nc(C)ccc2OC2SCC(O)C(O)C2O)cc1` (configuration not stated) registered a melting point of 86 to 90 °C. Consider `COc1cc(C=C(N)C(C)=O)ccc1OCC(O)CNC(C)C` (configuration not stated), for which the melting point lay within 139 to 140 °C. With `CCCS(=O)(=O)Nc1c(C(=O)c2ccccc2)[nH]c2cc(Cl)ccc12`, the melting point was 164 to 167 °C.

For `Cc1ccc(-c2cc3cc(C(=O)Nc4ccc(CN(C)C5CCOCC5)cc4)ccc3o2)cc1`, the melting point lay in the range of 233 to 236 °C.

The compound `CCc1nc2c(N)nc3cc(Br)cnc3c2n1CC(C)(C)O` came in with a melting point of 235 to 236 °C. In turn, `CC1(C)C(=O)N(c2ccc(C#N)c(C(F)(F)F)c2)C(=S)N1CCCO` displayed a melting point of 149 to 150 °C.

Turning to `Cn1c2cc(C#N)ccc2c2nc3ccccc3nc21`, the melting point is 284 to 287 °C. `COc1c(F)cc(Br)c(C(=O)O)c1F` had a melting point of 92 to 94 °C. Then `COc1cc(N)c(Cl)cc1C(=O)NCC1CCN(CCCCCCCC(=O)c2ccccc2)CC1`, with 138 to 140 °C.

For `COc1ccc(-c2cccc3c2N(S(=O)(=O)c2ccc(OC)cc2)CC3)cc1`, the melting point lay within 176 to 177 °C. Consider `CN(C)CCN(C(=O)N(C)C)c1nc2ccccc2[nH]1`, for which the melting point fell in the range of 193 to 195 °C.

Turning to `Cc1[nH]c2ccccc2c1C1=C(c2c(C)[nH]c3ccccc23)C(=O)NC1=O`, the melting point lay within 311 to 313 °C. Then `CCCCCc1cnc(-c2ccc(-c3ccc(C#N)cc3)cc2)nc1`, with 124 °C; and `COc1ccc(-n2c(-c3ccc(N(C)C)cc3)nnc2C(C)O)cc1` (configuration not stated), with 190 °C. As to `Fc1ccc2c(CN3CC=C(CCc4ccccc4)CC3)c[nH]c2c1`, the melting point lay within 150 to 152 °C. Take `NC(=O)NC(=O)C(Cl)(Cl)CC1(c2cc(Cl)cc(Cl)c2)CO1` (configuration not stated): the melting point was in the range of 186 to 189 °C.

For the compound `OCC1Cc2sccc2CN1` (racemic), the melting point was found to be 110 °C. With `CCOC(=O)N1CCN(C2=C(Cl)C(=O)c3nsnc3C2=O)CC1`, the melting point is 152 to 154 °C. The compound `CCOC(=O)c1c(C(F)(F)F)nc(C(F)(F)F)c(C(=O)OCC)c1Cl` displayed a melting point of 76 to 77 °C. Take `CCC(=O)C1=C(O)CC(c2ccc3c(c2)OCCO3)CC1=O` (configuration not stated): the melting point was 155 °C. In turn, `CCCNCC(O)COc1ccccc1CCCc1cccc2c1CC(=O)N2` (configuration not stated) showed a melting point of 122 °C. `O=c1ncc(Cl)cn1CSc1ccc([N+](=O)[O-])cc1` showed a melting point of 165 °C. `CC(C)N1CC(C(C(N)=O)(c2ccccc2)c2ccccn2)C1` (configuration not stated) displayed a melting point of 140 to 141 °C. In the case of `CCCCC(=O)C(Cc1ccc(C#N)cc1)c1ccccc1` (configuration not stated), the melting point turned out to be 70 °C. Compound `Cc1cc(C)c2c(-c3coc4cc(C)cc(C)c34)coc2c1` yielded a melting point of 98 to 100 °C. Then `COc1ccc(-c2cc(-c3ccccc3)[nH]c2C(=O)NCc2ccc(C(=O)NO)cc2)cc1`, with 187 to 188 °C; and `CC(=O)OC1CSC(Oc2cc(C)c(-c3cccnc3)c(C)c2)C(OC(C)=O)C1OC(C)=O` (configuration not stated), with 75 to 80 °C. On to `N#Cc1cc(F)c(N2CCN(Cc3cnc4c(c3)NC(=O)[C@@H]3CCCN43)CC2)cc1F`, for which the melting point lay within 224 to 227 °C. On to `CC(C)(C)OC(=O)CN1C(=O)[C@@H](N)CSc2ccccc21`, for which the melting point was 86 to 89 °C. With `COC(=O)CC(=O)c1cc(F)c(Cl)cc1Cl`, the melting point was in the range of 77 to 79 °C.

Turning to `O=C1[C@@H](N2C(=O)c3ccccc3C2=O)[C@@H](CCl)N1Cc1ccccc1` (relative stereo), the melting point worked out at 149 °C. Then `COc1nc(OC)nc(N(C)C(=O)NS(=O)(=O)c2ccccc2S(C)(=O)=O)n1`, with 160 to 162 °C. `COc1ccc(C#Cc2ccccc2)c(CC(C)=O)c1` displayed a melting point of 60 to 62 °C. As to `COCCN1CCn2c1nc(C(=O)O)c(OCc1ccccc1)c2=O`, the melting point fell in the range of 125 to 126 °C.

`O=c1cc(-c2ccc3ccccc3c2)[nH]c2ccccc12` gave a melting point of 290 to 292 °C. Then `CCCc1c(OCCCOc2ccc(C(=O)C(=O)OCC)cc2)ccc(C(=O)OC)c1O`, with 62 to 64 °C; and `CC(C)(C#N)Cc1ccc2cc(CC(C)(C)C#N)ccc2c1`, with 178 to 180 °C. Compound `CC(C)NC(=O)OCC(=O)c1ccc(-c2ccccc2)cc1` showed a melting point of 133 to 134 °C.

For `C/C(=C\CC1OC(=O)NC1=O)c1cccc(OCc2nc(-c3ccc(OCC(F)(F)F)cc3)oc2C)c1` (configuration not stated), the melting point was 120 to 121 °C. Take `COc1ccc2[nH]c(C)cc2c1OCc1ccccc1`: the melting point lay in the range of 74 to 75 °C. In the case of `Cc1cccc(-c2nnnn2C)c1S(N)(=O)=O`, the melting point is 140 to 161 °C. On to `COc1cccc(S(=O)(=O)c2ccc3[nH]c(C)c(CCNC(=O)OC(C)(C)C)c3c2)c1`, for which the melting point is 170 to 173 °C. Turning to `CCCS(=O)(=O)Oc1ccc(-c2c(C)c(C(=O)NN3CCCCC3)nn2-c2ccc(Cl)cc2Cl)cc1`, the melting point came to 190 °C.

As for `Nc1ccc(CCOCCCCCCNCC(O)c2cc(Cl)c(N)c(Cl)c2)cc1` (configuration not stated), the melting point lay in the range of 71 to 73 °C.

Regarding `CC(O)CN(C)Cc1cc2c(=O)c(C(=O)NCc3ccc(Cl)cc3)cn(C)c2o1` (configuration not stated), the melting point was determined as 152 °C. Then `COc1ccc(-c2cnc(N)c(Sc3ccc(C)cc3)n2)cc1`, with 107 to 110 °C. `COC(=O)[C@@H]1CCCN1c1ccc(C)c([N+](=O)[O-])c1O` gave a melting point of 111 to 114 °C. For `COC(=O)c1cc([N+](=O)[O-])c(Oc2cc(C)cc(C)c2)c(S(N)(=O)=O)c1`, the melting point was in the range of 197 to 198 °C.
